Calls of active or inactive are those of the source. No cut-off for these calls is given here.
What was measured:
Format in all cases: functional
NCI/ADR-RES = assay: Growth inhibition of human NCI-ADR-RES cells at 10^-5 M incubated for 48 hrs by sulforhodamine B assay relative to control; conditions: for inhibition of growth at 10 µM: read-out: GI
DU-145 = assay: Growth inhibition of human DU145 cells at 10^-5 M incubated for 48 hrs by sulforhodamine B assay relative to control; conditions: for inhibition of growth at 10 µM: DU-145, 48 h, read-out: GI
SK-MEL-2 = assay: Growth inhibition of human SK-MEL-2 cells at 10^-5 M incubated for 48 hrs by sulforhodamine B assay relative to control; conditions: for inhibition of growth at 10 µM: SK-MEL-2, 48 h, read-out: GI
KM12 = assay: Growth inhibition of human KM12 cells at 10^-5 M incubated for 48 hrs by sulforhodamine B assay relative to control; conditions: for inhibition of growth at 10 µM: KM12, 48 h, read-out: GI
HCT-15 = assay: Growth inhibition of human HCT15 cells at 10^-5 M incubated for 48 hrs by sulforhodamine B assay relative to control; conditions: for inhibition of growth at 10 µM: HCT-15, 48 h, read-out: GI
COLO 205 = assay: Growth inhibition of human COLO205 cells at 10^-5 M incubated for 48 hrs by sulforhodamine B assay relative to control; conditions: for inhibition of growth at 10 µM: COLO 205, 48 h, read-out: GI
MCF7 = assay: Growth inhibition of human MCF7 cells at 10^-5 M incubated for 48 hrs by sulforhodamine B assay relative to control; conditions: for inhibition of growth at 10 µM: MCF7, 48 h, read-out: GI
SK-MEL-5 = assay: Growth inhibition of human SK-MEL-5 cells at 10^-5 M incubated for 48 hrs by sulforhodamine B assay relative to control; conditions: for inhibition of growth at 10 µM: SK-MEL-5, 48 h, read-out: GI
HT-29 = assay: Growth inhibition of human HT-29 cells at 10^-5 M incubated for 48 hrs by sulforhodamine B assay relative to control; conditions: for inhibition of growth at 10 µM: HT-29, 48 h, read-out: GI
RXF 393 = assay: Growth inhibition of human RXF393 cells at 10^-5 M incubated for 48 hrs by sulforhodamine B assay relative to control; conditions: for inhibition of growth at 10 µM: RXF 393, 48 h, read-out: GI
OVCAR-4 = assay: Growth inhibition of human OVCAR4 cells at 10^-5 M incubated for 48 hrs by sulforhodamine B assay relative to control; conditions: for inhibition of growth at 10 µM: OVCAR-4, 48 h, read-out: GI
NCI-H522 = assay: Growth inhibition of human NCI-H522 cells at 10^-5 M incubated for 48 hrs by sulforhodamine B assay relative to control; conditions: for inhibition of growth at 10 µM: NCI-H522, 48 h, read-out: GI

SMILES | growth inhibition (GI) (NCI/ADR-RES) | growth inhibition (GI) (DU-145) | growth inhibition (GI) (SK-MEL-2) | growth inhibition (GI) (KM12) | growth inhibition (GI) (HCT-15) | growth inhibition (GI) (COLO 205) | growth inhibition (GI) (MCF7) | growth inhibition (GI) (SK-MEL-5) | growth inhibition (GI) (HT-29) | growth inhibition (GI) (RXF 393) | growth inhibition (GI) (OVCAR-4) | growth inhibition (GI) (NCI-H522) | other results
Cc1ccc2nc(Cl)c(Cn3nnnc3CSc3ccccc3)cc2c1 | Active | Active | Active | Active | Active | Active | Active | Active | Active | Active | Active | Active | 
Clc1nc2ccc(Br)cc2cc1Cn1nnc(Cc2ccccc2)n1 | Active | Active | Active | Active | Active | Active | Active | Active | Active | Active | Active | Active | 
Clc1nc2ccc(Br)cc2cc1Cn1nnnc1Cc1ccccc1 | Active | Active | Active | Active | Active | Active | Active | Active | Active | Active | Active | Active | 
Clc1nc2ccccc2cc1Cn1nnnc1Cc1ccccc1 | Active | Active | Active | Active | Active | Active | Active | Active | Active | Active | Active | Active | 
Clc1nc2ccccc2cc1Cn1nnc(CSc2ccccc2)n1 | Active | Active | Active | Active | Active | Active | Active | Active | Active | Active | Active | Active | 
Fc1ccc2nc(Cl)c(Cn3nnnc3CSc3ccccc3)cc2c1 | Active | Active | Active | Active | Active | Active | Active | Active | Active | Active | Active | Active | 
Cc1ccc2nc(Cl)c(Cn3nnnc3Cc3ccccc3)cc2c1 | Active | Active | Active | Active | Active | Active | Active | Active | Active | Active | Active | Active | 
Clc1nc2ccccc2cc1Cn1nnc(Cc2ccccc2)n1 |  |  |  |  |  |  |  |  |  |  |  |  | inhibition of growth at 10 µM (NCI/ADR-RES): 47.9%; inhibition of growth at 10 µM (DU-145): 24.8%; inhibition of growth at 10 µM (SK-MEL-2): 41.2%; inhibition of growth at 10 µM (KM12): 33.7%; inhibition of growth at 10 µM (HCT-15): 35%; inhibition of growth at 10 µM (COLO 205): 17.3%; inhibition of growth at 10 µM (MCF7): 54.2%; inhibition of growth at 10 µM (SK-MEL-5): 99.3%; inhibition of growth at 10 µM (HT-29): 28.4%; inhibition of growth at 10 µM (RXF 393): 16.1%; inhibition of growth at 10 µM (OVCAR-4): 70.3%; inhibition of growth at 10 µM (NCI-H522): 57.9%
Clc1nc2ccc(Br)cc2cc1Cn1nnnc1CSc1ccccc1 | Active | Active | Active | Active | Active | Active | Active | Active | Active | Active | Active | Active | 
COc1ccc2nc(Cl)c(Cn3nnc(Cc4ccccc4)n3)cc2c1 |  |  |  |  |  |  |  |  |  |  |  |  | inhibition of growth at 10 µM (NCI/ADR-RES): 79.9%; inhibition of growth at 10 µM (DU-145): 38.4%; inhibition of growth at 10 µM (SK-MEL-2): 50.4%; inhibition of growth at 10 µM (KM12): 63.5%; inhibition of growth at 10 µM (HCT-15): 63.5%; inhibition of growth at 10 µM (COLO 205): 75.1%; inhibition of growth at 10 µM (MCF7): 72.1%; inhibition of growth at 10 µM (SK-MEL-5): 147%; inhibition of growth at 10 µM (HT-29): 72.6%; inhibition of growth at 10 µM (RXF 393): 39.8%; inhibition of growth at 10 µM (OVCAR-4): 80.3%; inhibition of growth at 10 µM (NCI-H522): 62%
Clc1nc2ccccc2cc1Cn1nnnc1CSc1ccccc1 | Active | Active | Active | Active | Active | Active | Active | Active | Active | Active | Active | Active | 
Fc1ccc2nc(Cl)c(Cn3nnnc3Cc3ccccc3)cc2c1 | Active | Active | Active | Active | Active | Active | Active | Active | Active | Active | Active | Active | 
Fc1ccc2nc(Cl)c(Cn3nnc(Cc4ccccc4)n3)cc2c1 | Active | Active | Active | Active | Active | Active | Active | Active | Active | Active | Active | Active | 
COc1ccc2nc(Cl)c(Cn3nnnc3Cc3ccccc3)cc2c1 | Active | Active | Active | Active | Active | Active | Active | Active | Active | Active | Active | Active | 
Fc1ccc2nc(Cl)c(Cn3nnc(CSc4ccccc4)n3)cc2c1 | Active | Active | Active | Active | Active | Active | Active | Active | Active | Active | Active | Active | 
Cc1ccc2nc(Cl)c(Cn3nnc(CSc4ccccc4)n3)cc2c1 | Active | Active | Active | Active | Active | Active | Active | Active | Active | Active | Active | Active | 
COc1ccc2nc(Cl)c(Cn3nnnc3CSc3ccccc3)cc2c1 | Active | Active | Active | Active | Active | Active | Active | Active | Active | Active | Active | Active | 
